# From patent US9115151B2, “Substituted 2,10-dihydro-9-oxa-1,2,4A-triazaphenanthren-3-ones and uses thereof” (AbbVie Inc., priority 2012, dated 2015)
# Tests used:
# [1] = target: T1, PKCθ (Homo sapiens, UniProt Q04759); assay: In vitro enzyme assay (time-resolved fluorescence kinase assay), PKCθ, 100 μM ATP; type: biochemical
# T1 construct: His6; purchased Millipore; host or cells: baculovirus in Sf21 cells
# Procedure, shortened: (§1)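 Read-out was time-resolved fluorescence, corrected for a minus-enzyme blank and converted to percent activity relative to enzyme without drug. They were stopped with EDTA.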
# [2] = target: T2, PKCα (Homo sapiens, UniProt P17252); assay: In vitro enzyme assay (time-resolved fluorescence kinase assay), PKCα, 100 μM ATP; type: biochemical; conditions: 100 μM ATP; read-out: PKCα enzyme IC50
# T2 construct: His6; purchased Millipore; host or cells: baculovirus in Sf21 cells
# Procedure, shortened: as §1
# [3] = system: CD3/CD28 induced IL-2 in human T-Blasts; assay: T-Blasts CD3/CD28 induced IL-2 assay; type: cell-based; conditions: read-out: CD3/CD28-stimulated IL2 in T-blasts EC50
# Procedure, shortened: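 PHA-generated human T-blasts, 2×10^5 per well, preincubated 30 min with 8-point 1/3 compound dilutions in duplicate, then stimulated with anti-CD3+anti-CD28 (5 μg/mL final) for 24 h at 37° C. Supernatant IL-2 measured; MTT toxicity run on remaining cells.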
# T1 sequence (Q04759 whole entry): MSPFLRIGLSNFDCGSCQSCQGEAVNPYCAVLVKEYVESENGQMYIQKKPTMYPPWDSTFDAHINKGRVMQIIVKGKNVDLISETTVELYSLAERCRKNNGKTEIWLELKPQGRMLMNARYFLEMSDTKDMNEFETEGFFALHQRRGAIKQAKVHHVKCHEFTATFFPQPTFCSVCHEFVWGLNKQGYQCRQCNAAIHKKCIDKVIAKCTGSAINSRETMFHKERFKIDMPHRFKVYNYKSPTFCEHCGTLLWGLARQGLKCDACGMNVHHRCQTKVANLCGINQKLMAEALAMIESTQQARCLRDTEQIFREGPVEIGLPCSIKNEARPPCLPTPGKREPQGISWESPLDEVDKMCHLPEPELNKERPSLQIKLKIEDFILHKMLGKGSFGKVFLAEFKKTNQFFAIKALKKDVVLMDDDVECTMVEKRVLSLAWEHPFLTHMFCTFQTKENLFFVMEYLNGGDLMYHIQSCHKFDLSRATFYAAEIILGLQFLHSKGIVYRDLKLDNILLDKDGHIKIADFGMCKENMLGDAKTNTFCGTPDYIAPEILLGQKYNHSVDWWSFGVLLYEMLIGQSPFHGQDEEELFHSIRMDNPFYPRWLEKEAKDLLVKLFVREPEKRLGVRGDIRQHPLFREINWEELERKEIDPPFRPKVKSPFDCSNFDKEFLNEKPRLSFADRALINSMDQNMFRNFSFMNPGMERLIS
Compound,IC50 [1],IC50 [2],EC50 [3]
"CC1C(=O)NN=C2COc3c(cc(NC4CNC4)c(F)c3F)N21 (stereo not drawn) [Example 114, 9-(Azetidin-3-ylamino)-7,8-difluoro-1-methyl-3,5-dihydrobenzo[5,6][1,4]oxazino[3,4-c][1,2,4]triazin-2(1H)-one trifluoroacetic acid]",< 250 nM,1000 to 10000 nM,< 250 nM
"Cc1cc2c(cc1N1CCC13CCNCC3)N1C(=NNC(=O)C1C)CO2 (stereo not drawn) [Example 115, 1,8-Dimethyl-9-(1,7-diazaspiro[3.5]nonan-1-yl)-3,5-dihydrobenzo[5,6][1,4]oxazino[3,4-c][1,2,4]triazin-2(1H)-one trifluoroacetic acid]",< 250 nM,1000 to 10000 nM,< 250 nM
"CC1C(=O)NN=C2COc3cc(C(F)(F)F)c(C4CCNC(Cc5ccccc5)C4)cc3N21 (stereo not drawn) [Example 116, 9-(2-Benzylpiperidin-4-yl)-1-methyl-8-(trifluoromethyl)-3,5-dihydrobenzo[5,6][1,4]oxazino[3,4-c][1,2,4]triazin-2(1H)-one trifluoroacetic acid]",< 250 nM,1000 to 10000 nM,250 to 1000 nM
"CC1C(=O)NN=C2COc3cc(C(F)(F)F)c(C4CCNCC4)cc3N21 (stereo not drawn) [Example 120, 1-Methyl-9-(piperidin-4-yl)-8-(trifluoromethyl)-3,5-dihydrobenzo[5,6][1,4]oxazino[3,4-c][1,2,4]triazin-2(1H)-one trifluoroacetic acid]",< 250 nM,1000 to 10000 nM,250 to 1000 nM
"CC(C)N1CC(C)(Nc2cc3c(cc2C2CCOCC2)OCC2=NNC(=O)C(C)N23)C1 (stereo not drawn) [Example 126, 9-((1-Isopropyl-3-methylazetidin-3-yl)amino)-1-methyl-8-(tetrahydro-2H-pyran-4-yl)-3,5-dihydrobenzo[5,6][1,4]oxazino[3,4-c][1,2,4]triazin-2(1H)-one trifluoroacetic acid]",< 250 nM,1000 to 10000 nM,250 to 1000 nM
"C[C@@H]1C(=O)NN=C2COc3cc(-c4c(F)cccc4N4CCNCC4)ccc3N21 [Example 130, (R)-7-(2-Fluoro-6-piperazin-1-yl-phenyl)-4-methyl-2,10-dihydro-9-oxa-1,2,4a-triaza-phenanthren-3-one trifluoroacetic acid]",250 to 1000 nM,1000 to 10000 nM,250 to 1000 nM
C[C@@H]1C(=O)NN=C2COc3cc(-c4c(Cl)cccc4N4CCNCC4)ccc3N21 [Example 131],< 250 nM,1000 to 10000 nM,250 to 1000 nM
C[C@@H]1C(=O)NN=C2COc3cc(-c4c(N5CCNCC5)ccc(Cl)c4Cl)ccc3N21 [Example 132],< 250 nM,1000 to 10000 nM,250 to 1000 nM
"CC(C)c1cc2c(cc1[C@@H](C)C1(C)CN(C)C1)N1C(=NNC(=O)[C@H]1C)CO2 [Example 134, (R)-6-[(R)-1-(1,3-Dimethyl-azetidin-3-yl)-ethyl]-7-isopropyl-4-methyl-2,10-dihydro-9-oxa-1,2,4a-triaza-phenanthren-3-one]",< 250 nM,1000 to 10000 nM,250 to 1000 nM
C[C@@H]1C(=O)NN=C2COc3cc(-c4ccccc4CO)c([C@@H](C)C4(C)CN(C)C4)cc3N21 [Example 135],< 250 nM,250 to 1000 nM,< 250 nM
C[C@@H]1C(=O)NN=C2COc3cc(-c4ccco4)c([C@@H](C)C4(C)CN(C)C4)cc3N21 [Example 136],< 250 nM,1000 to 10000 nM,250 to 1000 nM
"C[C@@H]1C(=O)NN=C2COc3cc(-c4ccccc4C(C)(C)O)c([C@@H](C)C4(C)CN(C)C4)cc3N21 [Example 137, (R)-6-[(R)-1-(1,3-Dimethyl-azetidin-3-yl)-ethyl]-7-[2-(1-hydroxy-1-methyl-ethyl)-phenyl]-4-methyl-2,10-dihydro-9-oxa-1,2,4a-triaza-phenanthren-3-one]",< 250 nM,1000 to 10000 nM,250 to 1000 nM

# The remaining lines, values ahead:
IC50 [1],IC50 [2],EC50 [3],Compound
< 250 nM,1000 to 10000 nM,250 to 1000 nM,"CC1C(=O)NN=C2COc3ccc(N4CCCC4CN)cc3N21 (stereo not drawn) [Example 117, 6-(2-Aminomethyl-pyrrolidin-1-yl)-4-methyl-2,10-dihydro-9-oxa-1,2,4a-triaza-phenanthren-3-one trifluoroacetic acid]"
< 250 nM,1000 to 10000 nM,< 250 nM,"CC1C(=O)NN=C2COc3cc(-c4ccccc4)c(C4CCNCC4)cc3N21 (stereo not drawn) [Example 119, 1-Methyl-8-phenyl-9-(piperidin-4-yl)-3,5-dihydrobenzo[5,6][1,4]oxazino[3,4-c][1,2,4]triazin-2(1H)-one trifluoroacetic acid]"
< 250 nM,1000 to 10000 nM,1000 to 10000 nM,"Cc1cc2c(cc1NC1CNC1)N1C(=NNC(=O)C1C)CO2 (stereo not drawn) [Example 122, 9-(Azetidin-3-ylamino)-1,8-dimethyl-3,5-dihydrobenzo[5,6][1,4]oxazino[3,4-c][1,2,4]triazin-2(1H)-one ditrifluoroacetic acid]"
250 to 1000 nM,1000 to 10000 nM,1000 to 10000 nM,"CC1C(=O)NN=C2COc3cc(F)c(OC4CNC4)cc3N21 (stereo not drawn) [Example 123, 9-(Azetidin-3-yloxy)-8-fluoro-1-methyl-3,5-dihydrobenzo[5,6][1,4]oxazino[3,4-c][1,2,4]triazin-2(1H)-one trifluoroacetic acid]"
< 250 nM,1000 to 10000 nM,< 250 nM,"C[C@@H]1C(=O)NN=C2COc3cc(F)c(OC4CNC4)cc3N21 [Example 124, (R)-9-(Azetidin-3-yloxy)-8-fluoro-1-methyl-3,5-dihydrobenzo[5,6][1,4]oxazino[3,4-c][1,2,4]triazin-2(1H)-one trifluoroacetic acid]"
< 250 nM,1000 to 10000 nM,250 to 1000 nM,"Cc1cc2c(cc1NC1CN(C)C1)N1C(=NNC(=O)C1C)CO2 (stereo not drawn) [Example 125, 1,8-Dimethyl-9-((1-methylazetidin-3-yl)amino)-3,5-dihydrobenzo[5,6][1,4]oxazino[3,4-c][1,2,4]triazin-2(1H)-one trifluoroacetic acid]"
< 250 nM,1000 to 10000 nM,250 to 1000 nM,"CC1C(=O)NN=C2COc3cc(OCc4ccccc4)c(NC4CNC4)cc3N21 (stereo not drawn) [Example 127, 6-(Azetidin-3-ylamino)-7-benzyloxy-4-methyl-2,10-dihydro-9-oxa-1,2,4a-triaza-phenanthren-3-one trifluoroacetic acid]"
< 250 nM,1000 to 10000 nM,250 to 1000 nM,"CC1C(=O)NN=C2COc3cc(Nc4ccccc4)c(NC4CNC4)cc3N21 (stereo not drawn) [Example 128, 6-(Azetidin-3-ylamino)-4-methyl-7-phenylamino-2,10-dihydro-9-oxa-1,2,4a-triaza-phenanthren-3-one trifluoroacetic acid]"
< 250 nM,1000 to 10000 nM,250 to 1000 nM,"CC1C(=O)NN=C2COc3ccc(C(C)C4(C)CNC4)cc3N21 (stereo not drawn) [Example 129, 1-Methyl-9-(1-(3-methylazetidin-3-yl)ethyl)-3,5-dihydrobenzo[5,6][1,4]oxazino[3,4-c][1,2,4]triazin-2(1H)-one trifluoroacetic acid]"
250 to 1000 nM,1000 to 10000 nM,250 to 1000 nM,"CC(C)c1cc2c(cc1[C@@H](C)C1(C)CNC1)N1C(=NNC(=O)[C@H]1C)CO2 [Example 133, (R)-7-Isopropyl-4-methyl-6-[(R)-1-(3-methyl-azetidin-3-yl)-ethyl]-2,10-dihydro-9-oxa-1,2,4a-triaza-phenanthren-3-one hydrochloric acid]"
